Source: publication PMC9227096, “Design, Synthesis, and In Vitro, In Silico and In Cellulo Evaluation of New Pyrimidine and Pyridine Amide and Carbamate Derivatives as Multi-Functional Cholinesterase Inhibitors” (Pharmaceuticals, 2022)

How the values were obtained:
[1] = Chelation studies: UV-Vis titration and Job's plot; type: physicochemical; conditions: for chelating ability on the biometals Fe^3+, Cu^2+ and Zn^2+: UV-Vis spectra in MeOH, ligand/metal ratio 1:3, 1:5 or 1:10
Procedure: Initially, the UV–Vis spectrum of the ligand was recorded and compared with the spectra obtained by adding an excess of metal to the ligand solution, maintaining the same concentration of the ligand (ligand/metal ratio 1:3, 1:5 or 1:10). The variation of the UV–Vis spectrum of the ligand in presence of metal ions is indicative of the formation of the complex. […] As previously supposed, the chelating activity of these compounds is due to the presence of two adjacent nitrogen atoms in the 2-amino-pyridine moiety.
UV–Vis titrations of these compounds were carried out with the metal ions with which they form complexes, recording first the UV–Vis spectrum of the ligand and then the spectra obtained by mixing solutions of ligand and metal according to increasing metal/ligand molar ratios (Figure 7a).
The stoichiometries of metal–ligand complexes were determined through Job’s method.
The mole fraction X, which causes the maximum variation of absorbance, is extracted from the graph and then the value of the coefficient n, which corresponds to the number of ligand molecules per cation, is obtained (Figure 7b). The UV–Vis titrations spectra and the Job’s plots of all tested compound are reported in the Supplementary Materials (Figures S8–S17), while the data extrapolated from Job’s plots are summarized in Table 5.
For the UV–Vis titration, solutions 10^−3 M in MeOH of compounds 12, 14 and 18 were prepared. […]. UV–Vis spectra were recorded from 210 to 450 nm.
For the first measure, 150 µL of ligand solution were diluted in 2.85 mL of MeOH into sample cuvette, while only MeOH was placed in reference cuvette and the UV–Vis spectrum was recorded. For subsequent measurements, 2.85 mL of the opportune metal solution were placed both in a sample cuvette and in a reference cuvette; then 150 µL of ligand solution were added to a sample cuvette, while 150 µL of MeOH were added to the reference cuvette and the UV–Vis spectra were recorded. The spectra thus obtained were superimposed to observe the variations present between the ligand alone and in presence of increasing amount of metal.
To determine the stoichiometric coefficients of the complexes, Job’s method was used, which requires the mixing, in appropriate proportions, of the equimolar solution of metal ion and ligand, so that the final volume and the total moles present in the cuvette are equal for each measurement. The absorbance values were recorded at the wavelengths, extrapolated from the UV–Vis titration spectra, where the maximum variation of absorbance was observed. At the same time two solutions in MeOH of equal concentration were prepared, one of ligand and one of metal ion, diluting the solutions 1 M of CuSO4·5H2O and Zn(NO3)2·6H2O and 0.1 M of FeCl3·6H2O previously prepared. The concentrations of the solutions used and the wavelengths in which the absorbance was recorded were: 2.96·10^−4 M for 12 and Fe^3+–251, 320 nm; 2.83·10^−4 M for 14 and Fe^3+–250, 310 nm; 2.90·10^−4 M for 18 and Fe^3+–245, 310 nm; 6.00·10^−4 M for 18 and Cu^2+–330 nm.
For each determination 9–20 measurements were made, introducing the appropriate volumes of metal and ligand solutions in the sample cuvette to obtain mole fractions of the ligand in the range 0.1–0.9, while appropriate volumes of ligand solution and MeOH were placed in the reference cuvette, to obtain the same concentration of ligand in the sample cuvette. The absorbance values of the metal ion, calculated by the Lambert–Beer relation, known the extinction coefficients ε of the metal ion at used wavelengths and the nominal concentrations of the metal ion for each measure, were algebraically subtracted from the recorded absorbance values, in order to obtain the exclusive absorbance variations due to the complex formation. […]

[2] = target: T1, equine BChE (eqBChE) (Equus caballus, UniProt P81908); experiment: Inhibition constant and mechanism vs. eqBChE by Dixon's method; type: biochemical; conditions: inhibitor 200-1800 nM, acetylthiocholine 100-300 µM; for Ki: eqBChE, read-out: Ki ± SD
T1 construct: purchased Sigma-Aldrich (Milan, Italy)
Procedure: The recorded data were analysed with the enzyme kinetic module of SigmaPlot in order to find the best fitting model of inhibition, using the linear regression analysis. The reference kinetic models used in the regression analysis were: competitive, non-competitive, uncompetitive and mixed. Each determination was repeated five times and incorrect values were discarded to reduce the standard deviation to within the limit of 5%. In this way, the regression lines obtained have a linear regression coefficient (R^2) higher than 0.98. […] The Dixon’s plots of tested compounds are reported in the Supplementary Materials (Figures S1 and S2).
The constant and the mechanism of inhibition vs. eqBChE were determined for the compounds 12 and 14. For each compound a 500 μM stock solution was prepared in H2O/DMSO and diluted in water to prepare solutions of opportune concentrations (10, 30 and 60 μM) in order to introduce the cuvette volumes ranging from 60 to 100 μL to obtain the desired final concentrations (200–1800 nM). The maximum amount of DMSO used for the preparation of the stock solution was calculated in order to obtain a DMSO content in cuvette of <0.033%.
An amount of 3.0 mL of 0.1 M phosphate buffer (pH = 7.4), containing DTNB (0.25 mM) and eqBChE (0.083 UmL^−1), were mixed with the opportune volume of inhibitor, to obtain, in the cuvette, a final inhibitor concentration between 200 and 1800 nM. With this solution the blank was made. […]. The absorbance variations were measured at 412 nm at 25 °C between 0.5 and 1.5 min.
In order to determine the inhibition constants (Ki) and inhibition mechanism the rates of hydrolysis at three different concentrations of substrate in the presence of five different concentration of inhibitor were measured. The recorded data were analyzed by the enzyme kinetic module of SigmaPlot (version 8.02), plotting the reciprocal of rate of hydrolysis (1/v, min/μM) vs. the concentration of inhibitor (nM), according to Dixon’s method in order to find the best fitting model of inhibition, as indicated by calculated linear regression coefficient R^2.

T1 sequence (P81908 whole entry): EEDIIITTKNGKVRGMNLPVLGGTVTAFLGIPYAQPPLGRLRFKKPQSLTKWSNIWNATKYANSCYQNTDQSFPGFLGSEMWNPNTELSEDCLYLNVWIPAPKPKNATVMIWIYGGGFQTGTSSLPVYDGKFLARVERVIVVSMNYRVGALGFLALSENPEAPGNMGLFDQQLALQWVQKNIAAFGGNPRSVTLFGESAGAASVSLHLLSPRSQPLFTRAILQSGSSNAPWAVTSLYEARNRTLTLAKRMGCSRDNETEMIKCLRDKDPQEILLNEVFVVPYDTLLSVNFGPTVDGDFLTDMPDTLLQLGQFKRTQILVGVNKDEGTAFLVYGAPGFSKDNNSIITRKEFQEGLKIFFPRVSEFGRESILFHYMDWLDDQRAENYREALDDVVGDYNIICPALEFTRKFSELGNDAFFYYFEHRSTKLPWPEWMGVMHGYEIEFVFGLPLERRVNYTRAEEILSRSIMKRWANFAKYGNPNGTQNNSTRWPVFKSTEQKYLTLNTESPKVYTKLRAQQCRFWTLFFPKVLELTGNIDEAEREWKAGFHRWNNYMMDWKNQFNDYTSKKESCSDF

Structure (SMILES): O=C(NCCCCCCNc1ccccn1)c1ccccc1 [Compound 12, N-(6-(pyridin-2-ylamino)hexyl)benzamide]
- X (mole fraction that causes the maximum variation of absorbance), Fe^3+ ([1]; Job's plot): 0.69
- n (number of ligand molecules per cation), Fe^3+ ([1]; Job's plot): 2
- chelating ability on the biometals Fe^3+, Cu^2+ and Zn^2+ [1]: ability to chelate Fe^3+ and Cu^2+ ions
- Ki [2]: 2990 ± 190 nM
- Mechanism of inhibition on eqBChE [2]: Competitive

Structure (SMILES): O=C(Cc1ccc(Oc2ccccc2)cc1)NCCCCCCNc1ccccn1 [Compound 14, 2-(4-phenoxyphenyl)-N-(6-(pyridin-2-ylamino)hexyl)acetamide]
- X (mole fraction that causes the maximum variation of absorbance), Fe^3+ ([1]; Job's plot): 0.70
- n (number of ligand molecules per cation), Fe^3+ ([1]; Job's plot): 2
- chelating ability on the biometals Fe^3+, Cu^2+ and Zn^2+ [1]: ability to chelate Fe^3+ and Cu^2+ ions
- Ki [2]: 621 ± 43 nM
- Mechanism of inhibition on eqBChE [2]: Competitive

Structure (SMILES): O=C(NCCCCCCNc1ccccn1)Oc1ccccc1 [Compound 18, Phenyl (6-(pyridin-2-ylamino)hexyl)carbamate]
- X (mole fraction that causes the maximum variation of absorbance), Cu^2+ ([1]; Job's plot, Cu^2+): 0.49
- n (number of ligand molecules per cation), Cu^2+ ([1]; Job's plot, Cu^2+): 1
- X (mole fraction that causes the maximum variation of absorbance), Fe^3+ ([1]; Job's plot): 0.69
- n (number of ligand molecules per cation), Fe^3+ ([1]; Job's plot): 2
- chelating ability on the biometals Fe^3+, Cu^2+ and Zn^2+ [1]: ability to chelate Fe^3+ and Cu^2+ ions
